Experimental data as given in publication PMC3030271 (ACS medicinal chemistry letters, 2010).

Assays:
Type in all cases: cell-based
hA3AR = molecular target: T1, hA3AR (Homo sapiens, UniProt P0DMS8); test: Cyclic AMP functional assay at the hA3AR expressed in CHO cells
T1 sequence (P0DMS8 1-318): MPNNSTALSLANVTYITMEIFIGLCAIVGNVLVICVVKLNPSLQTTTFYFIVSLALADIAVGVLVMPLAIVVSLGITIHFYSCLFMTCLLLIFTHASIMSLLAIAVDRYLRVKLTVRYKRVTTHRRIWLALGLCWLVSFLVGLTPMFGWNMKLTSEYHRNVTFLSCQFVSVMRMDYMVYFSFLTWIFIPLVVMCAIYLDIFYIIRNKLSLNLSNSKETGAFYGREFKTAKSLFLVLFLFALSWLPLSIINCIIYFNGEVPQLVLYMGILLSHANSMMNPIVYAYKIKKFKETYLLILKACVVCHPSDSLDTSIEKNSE

hA2AAR = hA2AAR (Homo sapiens, UniProt P29274); test: Cyclic AMP functional assay at the hA2AAR expressed in CHO cells; conditions: compared to the standard CGS21680
hA2AAR, sequence (P29274 whole entry): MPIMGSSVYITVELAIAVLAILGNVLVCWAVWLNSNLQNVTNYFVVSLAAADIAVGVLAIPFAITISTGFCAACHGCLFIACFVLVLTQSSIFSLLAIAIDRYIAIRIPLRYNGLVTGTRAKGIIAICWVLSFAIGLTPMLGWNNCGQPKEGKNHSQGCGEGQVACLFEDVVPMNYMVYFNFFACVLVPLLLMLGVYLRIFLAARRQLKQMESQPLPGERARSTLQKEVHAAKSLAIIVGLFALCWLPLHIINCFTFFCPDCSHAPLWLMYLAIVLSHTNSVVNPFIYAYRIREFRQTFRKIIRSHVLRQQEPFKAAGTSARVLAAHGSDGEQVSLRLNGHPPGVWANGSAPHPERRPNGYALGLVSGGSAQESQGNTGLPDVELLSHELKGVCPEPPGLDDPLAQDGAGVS

hA2BAR = molecular target: T2, hA2BAR (Homo sapiens, UniProt P29275); test: Cyclic AMP accumulation at the hA2BAR expressed in CHO cells
T2 sequence (P29275 1-332): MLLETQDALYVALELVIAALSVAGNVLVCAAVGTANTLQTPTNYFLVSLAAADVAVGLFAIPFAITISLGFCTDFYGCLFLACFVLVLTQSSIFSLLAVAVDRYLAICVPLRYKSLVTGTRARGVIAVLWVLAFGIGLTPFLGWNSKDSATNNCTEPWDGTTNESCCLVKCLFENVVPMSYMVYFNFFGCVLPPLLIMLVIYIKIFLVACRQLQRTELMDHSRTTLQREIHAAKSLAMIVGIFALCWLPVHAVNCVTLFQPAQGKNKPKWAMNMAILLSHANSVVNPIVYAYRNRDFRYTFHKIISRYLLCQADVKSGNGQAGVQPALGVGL

| Structure (SMILES) | Functional behaviour at the hA3AR (cyclic AMP assay) (hA3AR) | Functional behaviour at the hA2AAR (cyclic AMP assay) (hA2AAR) | Functional behaviour at the hA2BAR (cyclic AMP accumulation) (hA2BAR) |
| --- | --- | --- | --- |
| CCCC/C=C/c1nc(N)c2ncn([C@@H]3SC[C@@H](O)[C@H]3O)c2n1 [Compound 4b] | potent and full antagonists |  |  |
| CCCCC#Cc1nc(N)c2ncn([C@@H]3SC[C@@H](O)[C@H]3O)c2n1 [Compound 4a] | potent and full antagonists | full agonist | weak partial agonist |
